{"source": "patent US20200239530A1", "about": "“COMPOUNDS AND METHODS OF MODULATING PROTEIN DEGRADATION” (Vividion Therapeutics, Inc., priority 2017, published 2020)", "test_in_all_cases": "Cysteine liganding, probe competition", "type_in_all_cases": "binding", "key": {"[1]": {"target": "T1, RRP1B Ribosomal RNA processing protein 1 homolog B (Homo sapiens, UniProt Q14684)", "T1 construct": "Cells were resuspended in cold PBS on ice and sonicated with a probe sonicator to achieve lysis; endogenous in cells", "T1 sequence (Q14684 1-758)": "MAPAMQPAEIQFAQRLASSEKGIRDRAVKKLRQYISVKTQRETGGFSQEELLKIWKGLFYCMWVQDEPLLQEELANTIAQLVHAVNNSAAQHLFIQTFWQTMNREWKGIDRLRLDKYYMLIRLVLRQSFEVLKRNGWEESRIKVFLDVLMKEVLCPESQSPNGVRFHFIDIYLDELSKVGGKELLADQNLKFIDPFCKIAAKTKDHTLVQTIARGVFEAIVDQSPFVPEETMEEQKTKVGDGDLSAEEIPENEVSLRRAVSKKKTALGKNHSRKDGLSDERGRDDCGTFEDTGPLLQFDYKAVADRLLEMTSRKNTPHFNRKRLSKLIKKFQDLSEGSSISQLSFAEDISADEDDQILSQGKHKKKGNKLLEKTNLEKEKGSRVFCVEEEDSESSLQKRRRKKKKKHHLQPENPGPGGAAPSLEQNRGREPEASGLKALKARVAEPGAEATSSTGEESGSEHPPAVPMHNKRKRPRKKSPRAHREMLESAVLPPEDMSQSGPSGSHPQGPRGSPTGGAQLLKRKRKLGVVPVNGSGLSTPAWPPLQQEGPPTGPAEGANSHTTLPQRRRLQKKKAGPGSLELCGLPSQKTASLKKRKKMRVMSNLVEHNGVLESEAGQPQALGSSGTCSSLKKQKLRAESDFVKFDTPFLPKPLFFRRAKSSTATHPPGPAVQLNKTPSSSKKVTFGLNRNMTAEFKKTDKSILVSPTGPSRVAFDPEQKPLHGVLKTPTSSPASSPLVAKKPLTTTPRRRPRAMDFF", "method_in_brief": "(§1)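 Read-out is loss of desthiobiotin iodoacetamide labelling at cysteines, measured on streptavidin-enriched tryptic peptides. Compound preincubation ran 1 hr at 25° C in PBS lysate holding 5 mg/ml proteome before the probe was added.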"}, "[2]": {"target": "T2, ZNF318 Zinc finger protein 318 (Homo sapiens, UniProt Q5VUA4)", "T2 construct": "Cells were resuspended in cold PBS on ice and sonicated with a probe sonicator to achieve lysis; endogenous in cells", "T2 sequence (Q5VUA4 whole entry)": "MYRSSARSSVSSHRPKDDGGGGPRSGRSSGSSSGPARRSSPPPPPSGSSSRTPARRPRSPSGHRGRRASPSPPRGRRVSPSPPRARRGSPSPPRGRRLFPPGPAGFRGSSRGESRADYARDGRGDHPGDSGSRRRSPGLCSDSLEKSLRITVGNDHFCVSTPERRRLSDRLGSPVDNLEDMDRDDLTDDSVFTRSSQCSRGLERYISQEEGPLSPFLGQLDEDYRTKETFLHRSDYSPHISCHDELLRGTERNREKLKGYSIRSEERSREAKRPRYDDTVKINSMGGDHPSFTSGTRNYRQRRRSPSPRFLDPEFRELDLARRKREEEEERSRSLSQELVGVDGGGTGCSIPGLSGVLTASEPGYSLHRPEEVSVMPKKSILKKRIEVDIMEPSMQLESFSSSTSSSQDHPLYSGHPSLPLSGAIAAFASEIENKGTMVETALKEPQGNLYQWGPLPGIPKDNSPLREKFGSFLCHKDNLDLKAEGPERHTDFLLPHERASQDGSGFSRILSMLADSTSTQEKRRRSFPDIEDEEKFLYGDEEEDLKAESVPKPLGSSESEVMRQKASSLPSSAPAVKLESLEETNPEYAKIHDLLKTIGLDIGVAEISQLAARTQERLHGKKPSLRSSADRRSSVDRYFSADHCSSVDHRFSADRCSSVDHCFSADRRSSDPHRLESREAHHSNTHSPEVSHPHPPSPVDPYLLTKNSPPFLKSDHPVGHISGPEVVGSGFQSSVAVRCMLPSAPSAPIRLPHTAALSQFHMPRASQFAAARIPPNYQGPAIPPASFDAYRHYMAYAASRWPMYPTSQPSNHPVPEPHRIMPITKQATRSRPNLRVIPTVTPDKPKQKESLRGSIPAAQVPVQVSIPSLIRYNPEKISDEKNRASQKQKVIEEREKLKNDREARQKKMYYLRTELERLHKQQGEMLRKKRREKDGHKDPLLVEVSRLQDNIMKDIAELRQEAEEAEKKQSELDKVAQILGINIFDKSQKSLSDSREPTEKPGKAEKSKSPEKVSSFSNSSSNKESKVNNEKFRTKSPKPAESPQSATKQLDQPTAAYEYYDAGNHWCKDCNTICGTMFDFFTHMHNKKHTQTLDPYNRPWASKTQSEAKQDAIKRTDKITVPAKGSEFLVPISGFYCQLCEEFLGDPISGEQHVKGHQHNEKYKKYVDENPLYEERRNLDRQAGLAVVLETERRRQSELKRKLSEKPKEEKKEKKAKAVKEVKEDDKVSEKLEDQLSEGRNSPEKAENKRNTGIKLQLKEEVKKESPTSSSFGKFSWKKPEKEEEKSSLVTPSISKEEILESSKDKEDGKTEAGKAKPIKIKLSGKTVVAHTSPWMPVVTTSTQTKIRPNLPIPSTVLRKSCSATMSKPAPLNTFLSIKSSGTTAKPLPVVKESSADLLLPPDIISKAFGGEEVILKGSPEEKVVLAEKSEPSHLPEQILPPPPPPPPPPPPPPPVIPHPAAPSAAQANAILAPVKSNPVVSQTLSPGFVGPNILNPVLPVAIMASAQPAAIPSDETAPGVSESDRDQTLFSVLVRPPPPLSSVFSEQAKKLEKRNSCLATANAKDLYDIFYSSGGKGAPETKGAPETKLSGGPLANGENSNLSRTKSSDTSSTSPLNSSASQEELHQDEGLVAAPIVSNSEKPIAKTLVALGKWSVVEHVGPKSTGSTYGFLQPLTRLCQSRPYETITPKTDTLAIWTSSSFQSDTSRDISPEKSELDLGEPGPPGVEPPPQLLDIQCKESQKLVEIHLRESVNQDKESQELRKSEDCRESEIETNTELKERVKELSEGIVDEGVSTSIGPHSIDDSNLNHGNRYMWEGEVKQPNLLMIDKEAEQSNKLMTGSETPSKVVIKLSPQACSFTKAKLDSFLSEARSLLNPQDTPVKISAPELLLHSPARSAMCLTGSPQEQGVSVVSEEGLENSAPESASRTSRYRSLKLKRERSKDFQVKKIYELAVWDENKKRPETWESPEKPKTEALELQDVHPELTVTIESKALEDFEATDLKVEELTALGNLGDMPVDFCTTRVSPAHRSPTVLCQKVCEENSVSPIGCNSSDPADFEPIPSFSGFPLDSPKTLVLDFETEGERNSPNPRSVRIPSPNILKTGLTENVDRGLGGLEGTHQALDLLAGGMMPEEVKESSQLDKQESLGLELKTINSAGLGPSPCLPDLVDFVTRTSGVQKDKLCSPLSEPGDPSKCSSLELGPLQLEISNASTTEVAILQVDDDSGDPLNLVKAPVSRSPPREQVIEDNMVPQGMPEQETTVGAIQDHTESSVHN", "method_in_brief": "as §1"}, "[3]": {"target": "T3, ANKRD54 Ankyrin repeat domain-containing protein 54 (Homo sapiens, UniProt Q6NXT1)", "T3 construct": "200 μL of lysate containing 5 mg/ml proteome was treated with 2 μL of 100× compound stock; endogenous in cells", "T3 sequence (Q6NXT1 whole entry, the tested form may be a part)": "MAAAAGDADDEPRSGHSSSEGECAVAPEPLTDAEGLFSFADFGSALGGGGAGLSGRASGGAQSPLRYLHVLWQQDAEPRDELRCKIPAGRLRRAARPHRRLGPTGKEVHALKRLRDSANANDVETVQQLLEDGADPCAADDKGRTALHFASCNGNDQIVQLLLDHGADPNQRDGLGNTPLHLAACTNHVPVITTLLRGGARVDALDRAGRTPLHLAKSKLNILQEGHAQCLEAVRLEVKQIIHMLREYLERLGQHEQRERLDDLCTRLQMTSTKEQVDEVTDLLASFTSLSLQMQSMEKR", "method_in_brief": "as §1"}, "[4]": {"target": "T4, RNF7 RING-box protein 2 (Homo sapiens, UniProt Q9UBF6)", "T4 construct": "Cells were resuspended in cold PBS on ice and sonicated with a probe sonicator to achieve lysis; endogenous in cells", "T4 sequence (Q9UBF6 1-113)": "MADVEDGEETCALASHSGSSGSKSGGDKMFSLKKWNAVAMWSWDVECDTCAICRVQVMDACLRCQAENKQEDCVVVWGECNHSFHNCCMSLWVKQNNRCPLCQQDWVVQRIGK", "method_in_brief": "as §1"}, "[5]": {"target": "T5, PRMT5 Protein arginine N-methyltransferase 5 (Homo sapiens, UniProt O14744)", "T5 construct": "Cells were resuspended in cold PBS on ice and sonicated with a probe sonicator to achieve lysis; endogenous in cells", "T5 sequence (O14744 whole entry)": "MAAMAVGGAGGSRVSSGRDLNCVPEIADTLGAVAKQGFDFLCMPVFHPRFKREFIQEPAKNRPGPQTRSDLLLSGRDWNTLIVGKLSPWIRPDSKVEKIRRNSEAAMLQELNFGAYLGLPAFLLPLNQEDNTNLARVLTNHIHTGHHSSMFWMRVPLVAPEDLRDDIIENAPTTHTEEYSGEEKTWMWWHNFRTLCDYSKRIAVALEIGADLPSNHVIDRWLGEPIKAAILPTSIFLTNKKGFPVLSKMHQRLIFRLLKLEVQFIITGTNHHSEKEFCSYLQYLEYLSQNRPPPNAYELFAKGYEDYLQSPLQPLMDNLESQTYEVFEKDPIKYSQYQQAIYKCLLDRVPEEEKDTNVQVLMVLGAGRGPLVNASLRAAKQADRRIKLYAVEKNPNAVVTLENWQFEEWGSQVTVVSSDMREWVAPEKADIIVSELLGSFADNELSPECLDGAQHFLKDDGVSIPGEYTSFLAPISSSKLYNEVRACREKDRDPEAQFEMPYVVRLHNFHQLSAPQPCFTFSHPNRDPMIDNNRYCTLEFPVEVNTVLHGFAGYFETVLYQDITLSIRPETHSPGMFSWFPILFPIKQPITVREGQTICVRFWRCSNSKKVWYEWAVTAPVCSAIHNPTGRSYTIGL", "T5 sequence (Q9BQA1 whole entry partner)": "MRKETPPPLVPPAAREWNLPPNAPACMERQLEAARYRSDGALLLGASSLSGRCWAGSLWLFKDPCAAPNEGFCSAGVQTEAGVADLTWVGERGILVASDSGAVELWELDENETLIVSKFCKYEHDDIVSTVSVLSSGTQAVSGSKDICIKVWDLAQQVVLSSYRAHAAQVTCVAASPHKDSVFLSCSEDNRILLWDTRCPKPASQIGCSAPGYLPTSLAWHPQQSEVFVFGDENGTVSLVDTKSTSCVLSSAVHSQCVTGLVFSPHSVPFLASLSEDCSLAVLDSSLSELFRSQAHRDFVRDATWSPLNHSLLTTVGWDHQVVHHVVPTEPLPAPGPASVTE", "method_in_brief": "as §1"}}}
{"compound": "COc1ccc2c(c1)CCCN2C(=O)CCl", "note": "[KB02]", "values": [{"measurement": "Liganded", "setting": "[1]; RRP1B Res# 155, uniprot Q14684", "value": "YES"}, {"measurement": "Liganded", "setting": "[2]; ZNF318 Res# 1681, uniprot Q5VUA4", "value": "YES"}, {"measurement": "Liganded", "setting": "[3]; ANKRD54 Res# 230, uniprot Q6NXT1", "value": "YES"}, {"measurement": "Liganded", "setting": "[4]; RNF7 Res# 88, uniprot Q9UBF6", "value": "YES"}, {"measurement": "Liganded", "setting": "[5]; PRMT5 Res# 278, uniprot O14744", "value": "YES"}]}
{"compound": "O=C(CCl)Nc1cc(C(F)(F)F)cc(C(F)(F)F)c1", "note": "[KBO3]", "values": [{"measurement": "100 Max", "setting": "[1]; uniprot Q14684", "value": 27.08}, {"measurement": "100 ave", "setting": "[1]; uniprot Q14684", "value": 18.31}, {"measurement": "500 Max", "setting": "[1]; uniprot Q14684", "value": 70.79}, {"measurement": "500 ave", "setting": "[1]; uniprot Q14684", "value": 66.05}, {"measurement": "100 Max", "setting": "[2]; uniprot Q5VUA4", "value": "−1.63"}, {"measurement": "100 ave", "setting": "[2]; uniprot Q5VUA4", "value": "−8.115"}, {"measurement": "500 Max", "setting": "[2]; uniprot Q5VUA4", "value": 55.07}, {"measurement": "500 ave", "setting": "[2]; uniprot Q5VUA4", "value": 40.555}, {"measurement": "100 Max", "setting": "[3]; uniprot Q6NXT1", "value": 7.02}, {"measurement": "100 ave", "setting": "[3]; uniprot Q6NXT1", "value": "−0.72"}, {"measurement": "500 Max", "setting": "[3]; uniprot Q6NXT1", "value": 45.29}, {"measurement": "500 ave", "setting": "[3]; uniprot Q6NXT1", "value": 44.21}, {"measurement": "100 Max", "setting": "[4]; uniprot Q9UBF6", "value": 20.4}, {"measurement": "100 ave", "setting": "[4]; uniprot Q9UBF6", "value": 20.4}, {"measurement": "100 ave", "setting": "[5]; uniprot O14744", "value": 16.62}, {"measurement": "500 Max", "setting": "[5]; uniprot O14744", "value": 45.47}, {"measurement": "500 ave", "setting": "[5]; uniprot O14744", "value": 45.47}, {"measurement": "100 Max", "setting": "[5]; uniprot O14744, in % (unit assumed)", "value": 16.62}]}
